EP4635974A1, “COSMETIC COMPOSITION FOR SKIN IMPROVEMENT” (LG Household & Health Care Ltd., priority 2022, dated 2024)
Where a SMILES comes first, the peptide text is derived from it. Where no end group is shown, it is not given here. The star is where a group is joined. Palmitoyl = CCCCCCCCCCCCCCCC(=O)*

Columns and labels:
[1] = molecular target: T1, Elastase derived from human leukocytes (Homo sapiens, UniProt P08246); test: Inhibition of elastase activity (synthetic substrate, absorbance at 405 nm); assay type: biochemical; conditions: for Inhibition of elastase activity (%): 100 µg/mL
T1 construct: Elastase derived from human leukocytes was used; from tissue; host or cells: human leukocytes
T1 sequence (P08246 30-267): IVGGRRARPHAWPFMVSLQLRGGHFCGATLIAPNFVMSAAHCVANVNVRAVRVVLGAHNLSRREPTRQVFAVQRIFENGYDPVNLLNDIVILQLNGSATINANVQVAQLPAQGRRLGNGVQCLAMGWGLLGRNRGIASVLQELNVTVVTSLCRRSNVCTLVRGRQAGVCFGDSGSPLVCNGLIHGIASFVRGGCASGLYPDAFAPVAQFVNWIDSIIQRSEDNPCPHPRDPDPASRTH
Experimental: (§1) In order to investigate the effect of peptide sequence variation, the activity of […] was tested as in Test Example 1 after sequence variation. Elastase derived from human leukocytes was used, and the synthetic substrate MeOSuc-Ala-Ala-Pro-Val-pNA was used as the substrate of elastase. A 100 mM Tris (pH 7.5) solution was used as a buffer solution. The elastase was diluted finally to 0.2 mU using the buffer solution. In addition, the synthetic substrate of elastase was prepared into a 100 mM solution using DMSO, and then diluted to a final concentration of 0.5 mM using a buffer solution. As a positive control group, quercetin known to inhibit elastase was used at a concentration of 10 ppm. The candidates of elastase inhibition were tested at final concentrations of 10 and 20 ppm. Reaction was conducted in a 96-well plate at room temperature for 20 minutes. The inhibition of the enzyme activity was determined by measuring absorbance at 405 nm using a spectrophotometer with 1-minute intervals, and calculating the slope of the absorbance versus time.
(§2) The peptide sequences of SEQ ID NOS 14 to 16 were treated at 100 µg/mL, and the peptide sequence RKSLFVD was used as a control peptide sequence. The inhibition of collagenase activity (%) and the inhibition of elastase activity (%) were calculated from the relative enzyme activity versus the control group, and the result is given in Table 4.
(§3) In order to investigate the effect of variation of the N-terminal or C-terminal of the peptide sequence, the activity of collagenase and elastase was tested after sequence variation as in Test Example 1.

[2] = tested on: acetylcholine release at the neuromuscular synapses; conditions: cited from earlier work
[3] = tested on: Collagenase derived from the mouse pancreas; test: Inhibition of collagenase activity (synthetic substrate, absorbance at 345 nm); assay type: biochemical; conditions: 100 µg/mL
Experimental: Collagenase derived from the mouse pancreas was used, and the synthetic substrate N-(3-[2-furyl]acryloyl)-Leu-Gly-Pro-Ala was used as the substrate of collagenase. A buffer solution in which 50 mM tricine, 10 mM CaCl2·H2O and 400 mM NaCl were dissolved (pH 7.5) was used. The synthetic substrate was dissolved in the buffer solution to a concentration of 10 mM and finally diluted to 75 µM. The collagenase was dissolved to a concentration of 1 unit/mL using cold triply distilled water at 4 °C and then finally diluted to 0.05 unit/mL using a buffer solution. The candidates of collagenase inhibition were tested at final concentrations of 25 and 50 ppm. As a positive control group, epigallocatechin gallate (EGCG) known to have the effect of inhibiting collagenase was used at a final concentration of 50 ppm. Reaction was conducted in a 96-well plate at room temperature for 10 minutes. The inhibition of the enzyme activity was determined by measuring absorbance at 345 nm using a spectrophotometer with 1-minute intervals, and calculating the maximum slope of the absorbance versus time.
as §1, §2, §3

[4] = Table 5, N-terminal or C-terminal variation
[5] = Table 4, relative enzyme activity versus the control group

Compound	inhibition at 100 µg/mL [1, 5] [%]	Inhibition of collagenase activity (%) ([3]; Table 3)	further results
CC(=O)N[C@@H](CCCCN)C(=O)NCC(=O)N[C@@H](CCCNC(=N)N)C(=O)N[C@@H](CO)C(=O)N[C@@H](CO)C(=O)N[C@@H](CS)C(=O)N[C@@H](Cc1ccccc1)C(=O)N[C@H](C(=O)N[C@@H](CC(=O)O)C(=O)N[C@@H](CS)C(=O)O)C(C)C (Ac-KGRSSCFVDC-OH)			inhibition at 100 µg/mL [1, 4]: 71%
CCCCCCCCCCCCCCCC(=O)N[C@@H](CCCCN)C(=O)NCC(=O)N[C@@H](CCCNC(=N)N)C(=O)N[C@@H](CO)C(=O)N[C@@H](CO)C(=O)N[C@@H](CS)C(=O)N[C@@H](Cc1ccccc1)C(=O)N[C@H](C(=O)N[C@@H](CC(=O)O)C(=O)N[C@@H](CS)C(=O)O)C(C)C (Palmitoyl-KGRSSCFVDC-OH)			inhibition at 100 µg/mL [1, 4]: 74.1%
CC(C)[C@H](NC(=O)[C@H](Cc1ccccc1)NC(=O)[C@H](CS)NC(=O)[C@H](CO)NC(=O)[C@H](CO)NC(=O)[C@H](CCCNC(=N)N)NC(=O)CNC(=O)[C@@H](N)CCCCN)C(=O)N[C@@H](CC(=O)O)C(=O)N[C@@H](CS)C(N)=O [C-amine-substituted peptide of SEQ ID] (H-KGRSSCFVDC-NH2)			inhibition at 100 µg/mL [1, 4]: 52.6%
Ac-Glu-Glu-Met-Gln-Arg-Arg-NH2 (Ac-EEMQRR-NH2) [Argireline]			times weaker than Botox [2]: 5000 times
CDVFCSSRGK [SEQ ID NO 14]			Inhibition of collagenase activity (%) [3, 5]: 24.77%; Inhibition of elastase activity (%) [1, 5]: 68.5%
DVFCSSRGK [SEQ ID NO 15, DVFCSSRGK]	65.5		
FCSSRGK [SEQ ID NO 16, FCSSRGK]	51.5		
KGRSSCF [SEQ ID NO 3, KGRSSCF]	57.8		
KGRSSCFDC [SEQ ID NO 11]		11.82	
KGRSSCFVC [SEQ ID NO 12]		13.97	
KGRSSCFVD [SEQ ID NO 2, KGRSSCFVD]	70.9		
KGRSSCFVDC [SEQ ID NO 1]		22.91	Inhibition of collagenase activity (%) [3, 5]: 21.57%; Inhibition of collagenase activity (%) [3, 4]: 22.6%; Inhibition of elastase activity (%) [1, 5]: 72.1%; Inhibition of elastase activity (%) [1, 4]: 68.3%
KGSSCFVDC [SEQ ID NO 10]		15.24	
RKSLFVD [Control peptide sequence, RKSLFVD, reference compound]	5.2		inhibition at 100 µg/mL [1, 4]: 1.3%
RSSCFVDC [SEQ ID NO 5]		12.23	
SSCFVDC [SEQ ID NO 6]		17.97	
